For data set [1], the system named is SIY tumor antigen specific CD8+ T cells. Briefly: SIY+ CD8+ T cells in splenocytes, B16.SIY model, pentamer FACS. In kind it is in vivo, mouse. The method, then:
(§1) Tumors were measured twice weekly. Mice were euthanized on day 7 post IT injection and spleens were harvested and splenocytes prepared. […] Stained cells were analyzed using FACS Versa cytometer with FACSDiva software (BD Biosciences). Data analysis was conducted with FlowJo software (Tree Star). […] IFN-γ ELISPOT plates were developed and quantified using a CTL plate reader and ImmunoSpot software.

In data set [2] the target is T1, HAQ allele hSTING (STING AA140-379) (Homo sapiens, UniProt Q86WV6, G230A/H232R/R293Q).
T1 construct: DNA encoding amino acids 140-379 (amino acid numbering corresponding to Swiss Prot Q86WV6); 6xHIS (N, cleaved yes); SUMO (N, cleaved yes); made in house; host or cells: E. coli Rosetta2 (DE3)
Briefly: DSF Tm shift with purified hSTING HAQ allele protein. Type of data set: binding. Conditions: 1 mg/mL purified STING AA140-379, ligand 1 mM.

Data set [3] concerns human STING signaling in THP1 cells (HAQ allele). Description: THP1-Dual IRF-3 inducible luciferase reporter assay. Type of data set: cell-based. For orientation: A reporter such as luciferase makes a cellular process visible.
The test system of the next data set is B16.SIY melanoma. Description: B16.SIY melanoma model, single intra-tumoral injection, tumor volume. Conditions: 100 μg dose, single IT injection. Type of data set: in vivo, mouse. As for the experimental part: Tumors were measured twice weekly.
as §1

Data set [4] deals with hPBMCs homozygous for the REF (R232H) STING allele. Description: IFN-β transcript induction in hPBMCs, STING REF/REF donor. In kind it is cell-based, human. Conditions: hPBMC STING REF/REF, 10 μM, 2 hours.
Data set [5] deals with hPBMCs homozygous for the HAQ STING allele. Description: IFN-β transcript induction in hPBMCs, STING HAQ/HAQ donor. Conditions: hPBMC STING HAQ/HAQ, 10 μM, 2 hours. Type of data set: cell-based, human.
Data set [6] deals with T2, wild type hSTING (STING AA140-379) (Homo sapiens, UniProt Q86WV6, H232R).
T2 construct: DNA encoding amino acids 140-379 (amino acid numbering corresponding to Swiss Prot Q86WV6); 6xHIS (N, cleaved yes); SUMO (N, cleaved yes); made in house; host or cells: E. coli Rosetta2 (DE3)
Description: DSF Tm shift with purified hSTING WT protein. Conditions: 1 mg/mL purified STING AA140-379, ligand 1 mM. In kind it is binding.

The subject of data set [7] is hPBMCs homozygous for the wild type (WT) STING allele. Description: IFN-β transcript induction in hPBMCs, STING WT/WT donor. In kind it is cell-based, human. Conditions: hPBMC STING WT/WT, 10 μM, 2 hours.
The target of data set [8] is T3, REF allele hSTING (STING AA140-379) (Homo sapiens, UniProt Q86WV6).
T3 construct: DNA encoding amino acids 140-379 (amino acid numbering corresponding to Swiss Prot Q86WV6); 6xHIS (N, cleaved yes); SUMO (N, cleaved yes); made in house; host or cells: E. coli Rosetta2 (DE3)
Description: DSF Tm shift with purified hSTING REF allele protein. Type of data set: binding.

The test system of data set [9] is serum TNF-α, IL-6, MCP-1 and IFN-γ. Description: Serum pro-inflammatory cytokines after intra-tumoral injection, B16.SIY model (CBA).

Read-outs that look alike come from different tables or passages of the source.

T3 sequence (Q86WV6 140-379): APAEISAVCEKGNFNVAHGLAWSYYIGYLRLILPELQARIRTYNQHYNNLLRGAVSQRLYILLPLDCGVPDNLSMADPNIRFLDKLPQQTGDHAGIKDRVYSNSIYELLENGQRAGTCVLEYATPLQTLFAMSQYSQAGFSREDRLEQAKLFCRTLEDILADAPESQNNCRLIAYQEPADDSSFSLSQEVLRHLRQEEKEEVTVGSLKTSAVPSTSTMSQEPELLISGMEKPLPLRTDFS
T1 sequence (Q86WV6 140-379 G230A/H232R/R293Q): as the sequence (Q86WV6 140-379) above, with G91A, H93R, R154Q counted along it
T2 sequence (Q86WV6 140-379 H232R): as the sequence (Q86WV6 140-379) above, with H93R counted along it

A word on the EC50: it is the midpoint of the concentration-response curve. Take `Nc1ncnc2c1ncn2[C@@H]1O[C@@H]2CO[P@@](=O)(S)O[C@@H]3[C@@H](F)[C@@H](CO[P@@](=O)(S)O[C@H]2[C@H]1F)O[C@H]3n1cnc2c(N)ncnc21` [Compound 10, dithio-[RP, RP]-cyclic-[3′βF-A(2′,5′)p-2′F-A(3′,5′)p]]: in [1] (1 μg dose, FACS), the “SIY+ CD8+ T cell response versus 2′3′-RR-(A)(A)” value was “comparable responses at the 1 μg dose to 2′3′-RR-(A)(A)”. In addition, in data set [1] (FACS pentamer staining, day 7 post IT injection), the “Frequency of SIY+ CD8+ T cells in splenocytes versus HBSS control” value is “significantly higher frequencies of SIY^+ CD8^+ T cells than HBSS control”. Besides, the “hSTING Tm Shift HAQ” value in [2] stood at 20.6 °C. Besides, the EC50 in data set [3] (Homo sapiens, THP-1, THP1 cells (HAQ allele), PB buffer containing 10 μg/mL digitonin, read-out: EC50 +digitonin) came out at 271 nM; in data set [3] (THP1 cells (HAQ allele), without digitonin, read-out: EC50 No digitonin), 4600 nM. In addition, the “Activity in THP1 assay without digitonin relative to di-OH reference compound, in words” value in data set [3] (without digitonin) was “improved activity relative to the di-OH reference compound 2′3′-RR-(A)(A)”. In addition, the “EC50 improvement over 2′3′-RR-(A)(A)” value in [3] (without digitonin) was determined as 8 fold. Also, the Tumor inhibition entry in the data set with B16.SIY melanoma is reported as “complete tumor inhibition”. For the same compound, the “Relative Expression of IFN-β transcript compared with di-OH reference, in words” value in data set [4], in data set [5] and in [7] was “higher levels of IFN-β transcripts than the di-OH reference compound 2′3′-RR-(A)(A)” in each case. In addition, the “hSTING Tm Shift WT” value in data set [6] was 11.8 °C. The “hSTING Tm Shift REF” value in [8] (1 mg/mL purified STING AA140-379, ligand 1 mM) is 6.4 °C. In addition, the “Tm shift compared with reference compound, in words” value in [8] (hSTING REF allele) is recorded as “Tm shift less than the 2′3′-RR-(A)(A)”. For the same compound, the “Serum concentrations of pro-inflammatory cytokines (TNF-α, IL-6, MCP-1, IFN-γ) versus 2′3′-RR-(A)(A)” value in [9] (1 μg dose, six hours post IT injection) is given as “comparable”. Also, in data set [9] (from systemic serum cytokines), the “Safety profile as compared to reference compound 2′3′-RR-(A)(A)” value is recorded as “comparable safety profile”.
